For 14 compounds, T/C results are on record in PubChem BioAssay AID180 (DTP/NCI, 2004).

This experiment relates to BDF1 mice, Adenocarcinoma 755 s.c., tumor weight T/C. In words: NCI In Vivo Anticancer Drug Screen. Data for tumor model Adenocarcinoma 755 (subcutaneous) in B6D2F1 (BDF1) mice. As to conditions: endpoint: mean tumor weight, schedule: Q01DX011 (ip), higher = larger tumour. The method, boiled down:
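Compound activity was tested in mice carrying transplanted tumors. Survival or tumor size was measured, and each value is the treated-group measurement divided by that of the vehicle-treated control group (T/C).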

Where [1] appears, read: dose: 30.0 mg/kg/injection, vehicle: carboxymethylcellulose (CMC).
Where [2] appears, read: dose: 7.5 mg/kg/injection, vehicle: carboxymethylcellulose (CMC).
Setting [3] is: dose: 25.0 mg/kg/injection, vehicle: carboxymethylcellulose (CMC).
The mark [4] stands for this setting: dose: 75.0 mg/kg/injection, vehicle: carboxymethylcellulose (CMC).
The mark [5] stands for this setting: dose: 225.0 mg/kg/injection, vehicle: carboxymethylcellulose (CMC).
The mark [6] stands for this setting: dose: 15.0 mg/kg/injection, vehicle: carboxymethylcellulose (CMC).
[7] abbreviates: dose: 28.0 mg/kg/injection, vehicle: saline.
[8] abbreviates: dose: 56.0 mg/kg/injection, vehicle: carboxymethylcellulose (CMC).

Several values for one entry are separate records, joined by “and”; a condition that tells them apart may be missing. Identical values can stand only once.

A word on the T/C: it is the ratio of treated to control. For `O=C1C=C(N2CC2)C(=O)C(N2CC2)=C1N1CC1`, the T/C is, setting by setting: (dose: 0.02 mg/kg/injection, vehicle: saline) 79 % of control; (dose: 0.05 mg/kg/injection, vehicle: saline) 61 % of control; (dose: 0.1 mg/kg/injection, vehicle: saline) 19 % of control; (dose: 3.0 micrograms/kg/injection, vehicle: carboxymethylcellulose (CMC)) 42 % of control; (dose: 5.0 micrograms/kg/injection, vehicle: carboxymethylcellulose (CMC)) 25 % of control; (dose: 5.0 micrograms/kg/injection, vehicle: saline) 65 % of control. Further, the T/C reads like this: (dose: 10.0 micrograms/kg/injection, vehicle: carboxymethylcellulose (CMC)) 39 % of control; (dose: 10.0 micrograms/kg/injection, vehicle: saline) 54 % of control; (dose: 20.0 micrograms/kg/injection, vehicle: carboxymethylcellulose (CMC)) 8 % of control; (dose: 20.0 micrograms/kg/injection, vehicle: saline) 59 % of control; (dose: 25.0 micrograms/kg/injection, vehicle: carboxymethylcellulose (CMC)) 70 % of control; (dose: 31.0 micrograms/kg/injection, vehicle: carboxymethylcellulose (CMC)) 100 % of control. For the same compound, the T/C by setting is: (dose: 40.0 micrograms/kg/injection, vehicle: saline) 33 % of control; (dose: 62.0 micrograms/kg/injection, vehicle: carboxymethylcellulose (CMC)) 69 % of control; (dose: 125.0 micrograms/kg/injection, vehicle: carboxymethylcellulose (CMC)) 63 % of control.
In the case of `O=C(Nc1ccc(N=Nc2ccc(O)c(C(=O)O)c2)cc1)c1ccc(C(=O)Nc2ccc(N=Nc3ccc(O)c(C(=O)O)c3)cc2)cc1`, the T/C under setting [1] is 92 % of control; the T/C (dose: 60.0 mg/kg/injection, vehicle: carboxymethylcellulose (CMC)) was 75 % of control; the T/C (dose: 120.0 mg/kg/injection, vehicle: carboxymethylcellulose (CMC)) is 102 % of control; the T/C (dose: 240.0 mg/kg/injection, vehicle: carboxymethylcellulose (CMC)) was 98 % of control.
Turning to `CS(=O)(=O)c1nc(N)nc2nc[nH]c12`, the T/C is 81 % of control (dose: 3.75 mg/kg/injection, vehicle: carboxymethylcellulose (CMC)); 93 % of control and 81 % of control under setting [2]; 5 % of control and 12 % of control under setting [1].
Consider `CC(=O)N(C)c1ccccc1`, for which the T/C is 69 % of control (dose: 12.5 mg/kg/injection, vehicle: other); 88 % of control (dose: 25.0 mg/kg/injection, vehicle: other); 73 % of control (dose: 50.0 mg/kg/injection, vehicle: other); 95 % of control (dose: 100.0 mg/kg/injection, vehicle: other).
Regarding `CNC(C)=O`, the T/C runs as follows: (dose: 125.0 mg/kg/injection, vehicle: carboxymethylcellulose (CMC)) 79 % of control and 86 % of control; (dose: 250.0 mg/kg/injection, vehicle: carboxymethylcellulose (CMC)) 104 % of control and 85 % of control; (dose: 1000.0 mg/kg/injection, vehicle: carboxymethylcellulose (CMC)) 60 % of control and 82 % of control.
In the case of `CN(C)S(=O)(=O)c1nc(Cl)c2[nH]cnc2n1`, the T/C under setting [3] was 98 % of control, the T/C under setting [4] is 89 % of control and the T/C under setting [5] was 58 % of control.
For `N#[N+]c1cn(C2CC(O)C(CO)O2)c(=O)[nH]c1=O` (configuration not stated), the T/C is, setting by setting: (dose: 30.0 mg/kg/injection, vehicle: saline) 106 % of control; (dose: 60.0 mg/kg/injection, vehicle: saline) 118 % of control; (dose: 120.0 mg/kg/injection, vehicle: saline) 94 % of control; (dose: 240.0 mg/kg/injection, vehicle: saline) 47 % of control.
For the compound `CSc1ncc(Br)c(Sc2nc(N)nc3nc[nH]c23)n1`, the T/C reads like this: (dose: 1.0 mg/kg/injection, vehicle: methylcellulose (MC)) 75 % of control; (dose: 3.0 mg/kg/injection, vehicle: methylcellulose (MC)) 87 % of control; (dose: 6.0 mg/kg/injection, vehicle: methylcellulose (MC)) 14 % of control; (dose: 12.0 mg/kg/injection, vehicle: methylcellulose (MC)) 3 % of control; under setting [6], 10 % of control.
`O=C(O)C(=O)c1ccc(-c2ccccc2)cc1`: the T/C runs as follows: (dose: 3.7 mg/kg/injection, vehicle: carboxymethylcellulose (CMC)) 99 % of control; under setting [2], 100 % of control; under setting [6], 87 % of control.
Consider `O=C1NC(=O)C(c2ccccc2)(c2ccc(Cl)cc2Cl)N1` (configuration not stated), for which the T/C is 54 % of control (dose: 28.0 mg/kg/injection, vehicle: carboxymethylcellulose (CMC)); 65 % of control under setting [7]; 79 % of control under setting [8]; 89 % of control (dose: 56.0 mg/kg/injection, vehicle: saline); 62 % of control (dose: 112.0 mg/kg/injection, vehicle: carboxymethylcellulose (CMC)); 64 % of control (dose: 112.0 mg/kg/injection, vehicle: saline). Besides, where the note is “dose: 224.0 mg/kg/injection, vehicle: saline”, the T/C is 24 % of control.
For `COC1C(OC(N)=O)C(O)C(Oc2ccc3c(O)c(NC(=O)c4ccc(O)c(CC=C(C)C)c4)c(=O)oc3c2C)OC1(C)C` (configuration not stated), the T/C is 78 % of control (dose: 50.0 mg/kg/injection, vehicle: saline); 42 % of control (dose: 100.0 mg/kg/injection, vehicle: saline); 60 % of control (dose: 200.0 mg/kg/injection, vehicle: saline).
`O=c1[nH]c2nc(Cl)nc(Cl)c2[nH]1`: the T/C was 54 % of control under setting [3], 117 % of control under setting [4] and 92 % of control under setting [5].
Take `CC(C)CSc1nc(N)nc2nc[nH]c12`: the T/C (dose: 2.0 mg/kg/injection, vehicle: methylcellulose (MC)) is 46 % of control; the T/C (dose: 4.0 mg/kg/injection, vehicle: methylcellulose (MC)) was 30 % of control; the T/C (dose: 8.0 mg/kg/injection, vehicle: methylcellulose (MC)) is 10 % of control; the T/C (dose: 16.0 mg/kg/injection, vehicle: methylcellulose (MC)) is 6 % of control; the T/C (dose: 32.0 mg/kg/injection, vehicle: methylcellulose (MC)) was 5 % of control; the T/C (dose: 64.0 mg/kg/injection, vehicle: methylcellulose (MC)) was 4 % of control.
Take `CC(C)OC(=O)C1(N)CCCC1`: the T/C is, setting by setting: (dose: 3.5 mg/kg/injection, vehicle: carboxymethylcellulose (CMC)) 43 % of control; (dose: 7.0 mg/kg/injection, vehicle: carboxymethylcellulose (CMC)) 55 % of control; (dose: 7.0 mg/kg/injection, vehicle: saline) 95 % of control; (dose: 14.0 mg/kg/injection, vehicle: carboxymethylcellulose (CMC)) 55 % of control; (dose: 14.0 mg/kg/injection, vehicle: saline) 96 % of control; under setting [7], 34 % of control and 58 % of control. Besides, the T/C under setting [8] is 42 % of control; the T/C (dose: 113.0 mg/kg/injection, vehicle: saline) is 6 % of control; the T/C (dose: 120.0 mg/kg/injection, vehicle: other) was 10 % of control.
